Results taken from patent US4595698A, “Physiologically active substance, arphamenine and production thereof” (Zaidan Hojin Biseibutsu Kagaku Kenkyu Kai, priority 1982, dated 1986).
Like-named read-outs stand apart in the source and are kept apart here.

Experiments:
aminopeptidase B = biological target: T1, aminopeptidase B (Rattus norvegicus, UniProt O09175); test: Inhibition of aminopeptidase B (arginine-β-naphthylamide degradation, modified Hoppusu method); format: biochemical
T1 construct: an aminopeptidase B which had been purified with DEAE-Cellulose; from tissue
T1 sequence (O09175 1-650): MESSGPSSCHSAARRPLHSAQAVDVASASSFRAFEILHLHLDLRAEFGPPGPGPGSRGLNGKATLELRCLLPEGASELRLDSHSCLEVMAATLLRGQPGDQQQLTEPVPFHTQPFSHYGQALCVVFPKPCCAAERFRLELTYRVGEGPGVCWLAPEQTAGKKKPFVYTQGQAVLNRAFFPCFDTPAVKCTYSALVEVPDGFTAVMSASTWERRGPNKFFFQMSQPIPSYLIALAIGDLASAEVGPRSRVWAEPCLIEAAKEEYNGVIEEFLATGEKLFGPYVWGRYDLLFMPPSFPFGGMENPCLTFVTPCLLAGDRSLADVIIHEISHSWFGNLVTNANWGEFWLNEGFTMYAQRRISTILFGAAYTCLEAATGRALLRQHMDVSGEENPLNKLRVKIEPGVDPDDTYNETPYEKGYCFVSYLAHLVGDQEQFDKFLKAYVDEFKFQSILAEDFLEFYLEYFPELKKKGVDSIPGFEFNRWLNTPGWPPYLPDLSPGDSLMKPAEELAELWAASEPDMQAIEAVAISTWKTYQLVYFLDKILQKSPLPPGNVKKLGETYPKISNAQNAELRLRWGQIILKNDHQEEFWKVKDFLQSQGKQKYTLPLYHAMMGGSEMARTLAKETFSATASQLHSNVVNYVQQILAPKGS
Method: Tracing of arphamenine which was made during the course of cultivation of the arphamenine-producing strain, as well as during the course of recovery and purification of arphamenine was conducted by determining the anti-aminopeptidase B potency of arphamenine according to the following methods.
In detail, 0.5 ml of 0.1 M tris-hydrochloride buffer solution (pH 7.0) and 0.25 ml of a solution containing an arphamenine specimen were added to 0.25 ml of a substrate solution containing 0.002 M arginine-β-naphthylamide. The mixed solution so obtained was heated at 37° C. for 3 minutes. To the heated solution was added 5 μl of a solution of an aminopeptidase B which had been purified with DEAE-Cellulose according to the enzyme-purification technique of Hoppusu et al. The resulting mixture was reacted for 30 minutes at 37° C., and the resultant reaction mixture was admixed with 1 ml of 1.0 M acetate buffer solution (pH 4.2) containing Fast Garnet GBC (o-aminoazotoluene, diazonium salt) at a concentration of 1 mg/ml and a surfactant "Tween" 20 at a concentration of 10% to stop the enzyme reaction. After allowing the resulting mixture to stand at ambient temperature for 15 minutes, absorbance (a) at 525 nm of the reaction solution was measured. On the other hand, adsorbance (b) at 525 nm of a control reaction solution obtained from the blank test using the buffer solution containing no arphamenine was measured. Percent of inhibition to the aminopeptidase B was calculated from the equation [(b-a)/b]×100.

[1] = tested on: cell-mediated immunity (D.T.H. to SRBC); test: D.T.H. to SRBC in tumor-bearing (Sarcoma 180) mice, Test Example 2 (1); format: in vivo, CDF1 mice
Method: The swelling degree on the footpad in mice was evaluated in the same way as in Test Example 1, except that the CDF1 mice employed for the test previously received an intraperitoneal inoculation of 10^6 Sarcoma 180 cells, and that arphamenine A was administered intraperitoneally once daily for 4 consecutive days, including the day of inoculation of SRBC, and two days after the administration, SRBC was given to the treated mice to elicit D.T.H. response.

[2] = tested on: cell-mediated immunity (D.T.H. response to sheep red blood cells); test: Delayed Type Hypersensitivity (D.T.H.) to SRBC in normal mice, Test Example 1; settings: for Increased thickness of footpad / T/C (%): single oral dose; for T/C (%): control = 100
Method: Effect of arphamenine on cell-mediated immunity in normal mice.
Effect of arphamenines A and B on the cell-mediated immunity was tested according to a known Delayed Type Hypersensitivity (D.T.H.) technique (see P. H. Lagrange, G. B. Mackaness and T. E. Miller: "J. Exp. Med.", 139, 1529~1539 (1974)) using mice immunized with sheep red blood cells (SRBC) as the antigen inoculated to the foot-pad pad of the mice.
Thus, 10^8 SRBC suspended in 0.05 ml of physiological saline was inoculated by subcutaneous injection to the one side of hind footpad of CDF1 mice (5 mice per group, female, 8-weeks old) to make immunization. At the time of this immunization, an aqueous solution containing 5 mg/kg, 0.5 mg/kg, 0.05 mg/kg or 0.005 mg/kg of arphamenine A or B was administered orally at a single dose to each test mice. 4 Days after the immunization, 10^8 SRBC in 0.05 ml of physiological saline was injected subcutaneously into the other side of the hind footpad of the test mice for elicitation of D.T.H. response. 24 Hours after the eliciting injection, the thickness (in mm) of the hind footpad having received the eliciting injection of SRBC was measured with calipers. At the same time, the thickness of the other side of footpad which had not received the eliciting injection of SRBC was also measured in each mouse.
The increase of footpad thickness (the swelling degree) was calculated by the following equation: [formula]
The effect of arphamenine on the DTH response was evaluated by the following equation: [formula]
Therefore, the assumption was here that the value for the control mice (untreated) was evaluated to be 100%.

mice = test: Acute toxicity tests in mice by intravenous injection; format: in vivo; settings: iv. dose of 150 mg/kg
Method: Acute toxicity tests in mice by intravenous injection have shown that no deaths are caused by arphamenine A in an iv. dose of 250 mg/kg or by arphamenine B in an iv. dose of 150 mg/kg. […] These new compounds are therefore useful as immunopotentiators and anti-tumor immunomodulators or as adjuvants to various chemotherapeutic agents for use in the treatment of carcinomas.

Ehrlich Solid Tumor = test: Anti-tumor activity against Ehrlich Solid Tumor, Test Example 3; format: in vivo, ddY mice
Method: Anti-tumor activity of arphamenine against Ehrlich Solid Tumor.
3×10^6 cells of Ehrlich ascites tumor were transplanted subcutaneously into the flank of ddY mice (8-week old, female, 5 mice per group). The day of this transplantation was designated as Day 0. Then, 0.5, 0.05 or 0.005 mg/kg of the test compound dissolved in physiological saline solution was orally administered to the mice a total of 7 times on alternate days until Day 15, beginning on Day 1. On day 30, the size (shorter diameter^2 ×longer diameter/2) of tumor and the weight of tumor were measured. The results in this treated group of mice were compared with those in the control group of mice to calculate tumor inhibition rate (TIR, %) according to the following equation: [formula] where C denotes the size or weight of tumor in the control group, and T denotes the size or weight of tumor in the treated group.

[3] = 0.05 mg/kg orally, 7 times on alternate days, day 30

## N=C(N)NCCCC(N)C(=O)CC(Cc1ccc(O)cc1)C(=O)O (stereo not drawn) [Arphamenine B]
Aminopeptidase B; crude powder after CM-Sephadex C-25, Example 3, read-out: anti-aminopeptidase B potency, IC50 (converted)
  IC50: 6.84 nM
Aminopeptidase B; light yellow powder after Biogel P-2, Examples 8 and 9, read-out: anti-aminopeptidase B potency (IC50) (converted)
  IC50: 56.5 nM
[1]; tumor-bearing
  cell-mediated immunity depressed by the tumor (in words): modulate the cell-mediated immunity depressed by the tumor
[2]; Table 2, 0.005 mg/kg
  Increased thickness of footpad: 12.4 ± 1.40 × 0.1 mm
  T/C (%): 143%
[2]; Table 2, 0.05 mg/kg
  Increased thickness of footpad: 14.0 ± 1.33 × 0.1 mm
  T/C (%): 161%
[2]; Table 2, 0.5 mg/kg
  Increased thickness of footpad: 14.7 ± 1.74 × 0.1 mm
  T/C (%): 169%
[2]; Table 2, 5 mg/kg
  Increased thickness of footpad: 13.7 ± 1.77 × 0.1 mm
  T/C (%): 157%
[2]; normal animals
  cell-mediated immunity in normal animals (in words): potentiate the cell-mediated immunity in normal animals
mice
  deaths, acute toxicity: no deaths
Ehrlich Solid Tumor; summary statement
  host-mediated anti-tumor effect (in words): exhibit a host-mediated anti-tumor effect

## CC(C)C[C@H](NC(=O)[C@@H](O)[C@H](N)Cc1ccccc1)C(=O)O [Bestatin, reference compound]
[1]; Table 3, 5 mg/kg intraperitoneally once daily, 4 days
  Increased thickness of footpad: 6.0 ± 0.96 × 0.1 mm
[1]; Table 3, 5 mg/kg intraperitoneally once daily, 4 days, control = 100
  T/C (%): 133%
[2]; Table 1, 0.5 mg/kg
  Increased thickness of footpad: 12.5 ± 1.24 × 0.1 mm
  T/C (%): 151%
[2]; Table 2, 0.5 mg/kg
  Increased thickness of footpad: 13.0 ± 1.13 × 0.1 mm
  T/C (%): 149%
Ehrlich Solid Tumor; [3]
  TIR (%), tumor size: 60.6%
  TIR (%), tumor weight: 44.9%
Ehrlich Solid Tumor; 0.05 mg/kg orally, 7 times on alternate days, day 30, **P < 0.05 (Ttest)
  Average weight of tumor: 1.47 ± 0.92 g
Ehrlich Solid Tumor; 0.05 mg/kg orally, 7 times on alternate days, day 30, *P < 0.1 (Ttest)
  Average size of tumor: 2089 ± 1946 mm^3
